From patent EP0054589B1, “Organic phosphoric acid ester derivatives, a process for preparing the same and insecticidal, miticidal or nematocidal compositions containing the same” (priority 1980, dated 1982) come the findings set out here.

Molecules are shown by their SMILES.

One data set has as its system Tomato. Briefly: Phytotoxicity on various crops. Further details: key: Symbol — indicates that no toxicity was observed. As to conditions: 500 ppm sprayed; checked visually after 10 days. The data set is classed as in vivo. Summed up: (§1)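 Visual phytotoxicity rating at 10 days post-spray, greenhouse-grown plants. Treatment: EC formulation, 500 ppm a.i. in water, sprayed to full coverage. n=3 per compound.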

A further data set deals with Beet. Briefly: Phytotoxicity on various crops. As to conditions: 500 ppm sprayed; checked visually after 10 days. The data set is classed as in vivo. Further details: key: Symbol — indicates that no toxicity was observed. The method in brief: as §1
In a further data set the test system is Cabbage. As to the kind of experiment: Phytotoxicity on various crops. As to conditions: 500 ppm sprayed; checked visually after 10 days. Format: in vivo. Details: key: Symbol — indicates that no toxicity was observed. Summed up:
as §1

The next data set has as its system Cotton. As to the kind of experiment: Phytotoxicity on various crops. The data set is classed as in vivo. As to conditions: 500 ppm sprayed; checked visually after 10 days. Details: key: Symbol — indicates that no toxicity was observed. Summed up:
as §1

The subject of a further data set is egg plant. As to the kind of experiment: Phytotoxicity on various crops. Format: in vivo. Further details: key: Symbol — indicates that no toxicity was observed. To be noted: 500 ppm sprayed; checked visually after 10 days. The method in brief: as §1
A further data set concerns Tea. As to the kind of experiment: Phytotoxicity on various crops. Format: in vivo. Details: key: Symbol — indicates that no toxicity was observed. To be noted: 500 ppm sprayed; checked visually after 10 days. The method in brief:
as §1

In another data set the test system is Cucumber. Briefly: Phytotoxicity on various crops. Format: in vivo. Details: key: Symbol — indicates that no toxicity was observed. As to conditions: 500 ppm sprayed; checked visually after 10 days. The method in brief: as §1
The next data set concerns Green Pepper. As to the kind of experiment: Phytotoxicity on various crops. Further details: key: Symbol — indicates that no toxicity was observed. As to conditions: 500 ppm sprayed; checked visually after 10 days. Format: in vivo. The method in brief:
as §1

A further data set concerns Apple. As to the kind of experiment: Phytotoxicity on various crops. As to conditions: 500 ppm sprayed; checked visually after 10 days. Details: key: Symbol — indicates that no toxicity was observed. Format: in vivo. Summed up:
as §1

Another data set deals with Kidney Bean. As to the kind of experiment: Phytotoxicity on various crops. The data set is classed as in vivo. Details: key: Symbol — indicates that no toxicity was observed. As to conditions: 500 ppm sprayed; checked visually after 10 days. Summed up:
as §1

Another data set deals with Rice. As to the kind of experiment: Phytotoxicity on various crops. Format: in vivo. Further details: key: Symbol — indicates that no toxicity was observed. To be noted: 500 ppm sprayed; checked visually after 10 days. The method in brief:
as §1

The test system of the next data set is diamond back moth. Briefly: Insecticidal effect on diamond-back moth (cabbage leaf dip). The data set is classed as in vivo, Plutella xylostella. To be noted: 100 ppm, after 72 hours, 25°C. The method, then: (A) An emulsifiable concentrate prepared as described in Formulation Example 1 was diluted with water to a predetermined concentration and leaves of a cabbage were dipped into the dilute emulsion for 10 seconds followed by drying in air, and charged in a 60 ml volume cup made of vinyl chloride resin. Then, thirty 3rd-instar larvae of diamond back moth were put in each cup, and the cups were kept at 25°C. After 72 hours, percent mortality was assessed and the test was replicated 3 times for each treatment.
(B) An emulsifiable concentrate prepared as described in Formulation Example 4 was diluted with water to a predetermined concentration and leaves of a cabbage were dipped into the dilute emulsion for 10 seconds followed by drying in air, and charged in a 60 ml volume cup made of vinyl chloride resin. Then, thirty 3rd-instar larvae of diamond back moth were put in each cup, and the cups were kept at 25°C. After 72 hours, percent mortality was assessed and the test was replicated 3 times for each treatment.

In the next data set the test system is apple leaf miner. As to the kind of experiment: Insecticidal effect on apple leaf miner (sprayed apple seedling). Format: in vivo, Lithocolletis ringoniella. As to conditions: Phyllonorycter ringoniella, 336 h; Table 10; 500 ppm; fourteen days after spraying; wettable powder as Formulation Example 5; read-out: Percent Morality (%). The method, then:
(A) A dilute water suspension of a wettable powder prepared as described in Formulation Example 5 was sufficiently sprayed using a spray-gun on a seedling of an apple tree planted in a bisque flower pot to which plant larvae of apple leaf miner just after hatching were parasitic. Thereafter the pots were placed in a green house. Fourteen days after the spraying, bores made by larvae were broken and percent mortality was assessed for all the leaves of each seedling. Three pots were used for each treatment.
(B) A dilute water suspension of a wettable powder prepared as described in Formulation Example 7 was sufficiently sprayed using a spray-gun on a seedling of an apple tree planted in a bisque flower pot to which plant larvae of apple leaf miner just after hatching were parasitic. Thereafter the pots were placed in a green house. Fourteen days after the spraying, bores made by larvae were broken and percent mortality was assessed for all the leaves of each seedling. Three pots were used for each treatment.

The test system of data set [1] is tobacco cutworm. Briefly: Insecticidal effect on tobacco cutworm (cabbage leaf dip). The data set is classed as in vivo, Prodenia litura. To be noted: after 48 hours, 25°C. The method in brief: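 Cabbage leaves dipped in water-diluted emulsifiable concentrate (two formulations, tests A and B) and air-dried were fed to 3rd-instar tobacco cutworm larvae at 25°C. Percent mortality scored after 48 hours; 3 replicates of 30 insects per compound.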

The test system of a further data set is rice stem borer. As to the kind of experiment: Insecticidal effect on rice stem borer, 3rd-instar larvae (rice seedling dip). Format: in vivo, Chilo suppressalis. As to conditions: after 72 hours, 25°C. The method in brief: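 Wettable-powder formulations were diluted in water to set concentrations, and rice seedlings were dipped in them. Ten 3rd-instar larvae were placed per capped cup with the treated seedlings and held at 25°C.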

Another data set concerns smaller tea tortrix. As to the kind of experiment: Insecticidal effect on smaller tea tortrix (apple leaf dip). Format: in vivo. As to conditions: Adoxophyes orana, foliar; Table 9; 100 ppm; after 72 hours, 25°C; wettable powder as Formulation Example 5; read-out: Percent Mortality. The method, then:
Leaves of an apple tree were dipped into a dilute water suspension of a wettable powder prepared as described in Formulation Example 5. After drying in air, the leaves were charged in a 60 ml volume cup made of vinyl chloride resin, and […] 3rd-instar larvae of smaller tea tortrix were put in each cup. The cups were capped and kept at 25°C. After 72 hours, the number of the surviving insects and the dead insects were recorded to determine percent mortality. In each treatment, 3 cups and 30 insects were used in total.

The subject of data set [2] is tobacco cutworm. Briefly: Long-lasting insecticidal effect on tobacco cutworm (sprayed cabbage plantlet). As to conditions: Table 6, concentration 500 (unit not given), mortality after 48 hours. Format: in vivo, Prodenia litura. The method, then:
(§2) (A) An emulsifiable concentrate prepared as described in Formulation Example 2 was diluted with water to a predetermined concentration and sprayed onto a cabbage plantlet in a flower pot of 15 cm in diameter using a spray-gun sufficiently and the tests plants were placed in a green house. The leaves of the plants were cut off on the 3rd, 5th, 7th, 10th and 15th day and placed in a 60 ml volume cup and 3rd-instar larvae of tobacco cutworm were put in each cup. The cups were kept in an incubator (25°C). After 48 hours, percent mortality was assessed. The tests was replicated 3 times for each compound using 30 insects in each test.
as §2, with “(B) An” for “(A) An”, “Example 3” for “Example 2”, “and 1 5th” for “and 15th”

Setting [3] is: Table 8, emulsifiable concentrate as Formulation Example 4.
Where [4] appears, read: Table 3, 500 ppm, emulsifiable concentrate as Formulation Example 1.
Setting [5] is: Table 4, 100 ppm, emulsifiable concentrate as Formulation Example 3.
The mark [6] stands for this setting: Table 1, 100 ppm, wettable powder as Formulation Example 5.
[7] abbreviates: Table 1, 500 ppm, wettable powder as Formulation Example 5.
Where [8] appears, read: Table 2, 100 ppm, wettable powder as Formulation Example 7.

Regarding `CCOP(=O)(Oc1ccc2c(c1)OC(C)(C)C=C2C)SC(C)CC` (stereo not shown) [Compound No. 18], the “Phytotoxicity: Tomato” value in the data set with Tomato is given as “—”. In addition, the “Phytotoxicity: Beet” value in the data set on Beet is “—”. In the data set with Cabbage, the “Phytotoxicity: Cabbage” value is given as “—”. Moreover, the “Phytotoxicity: Cotton” value with Cotton is on record as “—”. Also, the “Phytotoxicity: Egg Plant” value in the data set with egg plant was “—”. In addition, the “Phytotoxicity: Tea” value with Tea is given as “—”. Besides, the “Phytotoxicity: Cucumber” value in the data set on Cucumber was “—”. In addition, in the data set on Green Pepper, the “Phytotoxicity: Green Pepper” value is recorded as “—”. Also, the “Phytotoxicity: Apple” value in the data set with Apple is given as “—”. For the same compound, in the data set on Kidney Bean, the “Phytotoxicity: Kidney Bean” value is given as “—”. The “Phytotoxicity: Rice” value in the data set with Rice is “—”. Further, the “Percent Mortality (%)” value in the data set with diamond back moth (setting [3]) is 83.3%; in the data set with tobacco cutworm [1] (setting [4]), 100%; with tobacco cutworm [1] (setting [5]), 100%; with rice stem borer (setting [6]), 100%; in the data set on rice stem borer (setting [7]), 100%; with rice stem borer (setting [8]) it was 100%. Moreover, the mortality at 500 ppm in the data set on apple leaf miner turned out to be 100%. For the same compound, in the data set with smaller tea tortrix, the mortality at 100 ppm was found to be 100%.

For `CCCSP(=O)(OCC)Oc1cccc2c1C(C)=CC(C)(C)O2` (stereo not shown) [Compound No. 22], the “Phytotoxicity: Tomato” value in the data set with Tomato was “—”. Moreover, the “Phytotoxicity: Beet” value in the data set on Beet is given as “—”. Besides, in the data set with Cabbage, the “Phytotoxicity: Cabbage” value is reported as “—”. In addition, in the data set on Cotton, the “Phytotoxicity: Cotton” value is listed as “—”. The “Phytotoxicity: Egg Plant” value in the data set with egg plant is “—”. For the same compound, in the data set with Tea, the “Phytotoxicity: Tea” value is given as “—”. Moreover, in the data set on Cucumber, the “Phytotoxicity: Cucumber” value is given as “—”. Also, in the data set on Green Pepper, the “Phytotoxicity: Green Pepper” value is listed as “—”. In addition, in the data set with Apple, the “Phytotoxicity: Apple” value is reported as “—”. The “Phytotoxicity: Kidney Bean” value in the data set on Kidney Bean was “—”. Also, in the data set with Rice, the “Phytotoxicity: Rice” value is reported as “—”. The “Percent Mortality (%)” value was 100% in the data set with diamond back moth (Table 7, emulsifiable concentrate as Formulation Example 1); 100% with diamond back moth (setting [3]); 100% in the data set with tobacco cutworm [1] (setting [4]); 100% in the data set with tobacco cutworm [1] (setting [5]); 100% with rice stem borer (setting [6]); 100% in the data set with rice stem borer (setting [7]). For the same compound, the “Percent Mortality (%)” value with rice stem borer (setting [8]) turned out to be 100%. Moreover, the mortality at 100 ppm with smaller tea tortrix came out at 100%. In addition, the “Percent Mortality After Application 3rd Day” value in the data set with tobacco cutworm [2] (leaves cut on 3rd day) is reported as 100%. For the same compound, in the data set on tobacco cutworm [2] (leaves cut on 5th day), the “Percent Mortality After Application 5th Day” value came to 100%. In addition, the “Percent Mortality After Application 7th Day” value in the data set on tobacco cutworm [2] (leaves cut on 7th day) came out at 73.3%. In the data set with tobacco cutworm [2] (leaves cut on 10th day), the “Percent Mortality After Application 10th Day” value is given as 53.3%. Further, the “Percent Mortality After Application Immediately after Application” value with tobacco cutworm [2] came to 100%.
